US20260347399A1, “BRAIN PENETRATING PEPTIDES AND METHODS OF USE” (priority 2022, published 2026)
Ends that are not written are not given here.

Key:
[1] = tested on: GBM and normal brain parenchyma; experiment: Synthetic peptide homing in glioma-bearing mice (IHC); type: in vivo, mouse; details: synthetic peptide i.v., 1 h
Method: CVGTNCY (SEQ ID NO:2) peptide-phage or control phage were injected iv into mice, after one hour circulation animals were perfused with 20 ml PBS, organs were collected, weighed, and dropped to 1% NP40-LB solution. Organs were homogenized and titer of each tissue was determined. FAM-labeled peptides (2 mM of peptide in PBS) were injected intravenously and 3 hours later the animals were perfused with 20 mL of PBS. The organs were excised, snap-frozen in the vapor of liquid nitrogen, and stored at −80 °C. For confocal microscopy, the tissues were sectioned at 15 μm and stained with antibodies and DAPI.
Cryosections (15 μm) on Superfrost Plus slides were fixed in cold methanol, washed in PBS, treated with 3% hydrogen peroxide, and blocked in PBS containing 0.05% Tween-20, 5% BSA, and 5% goat serum (GE Healthcare, UK) for 1 h. The sections were immunostained with rabbit anti-fluorescein (cat #A889, Thermo Fisher Scientific, MA, USA) antibody overnight at +4 °C. […] Sections were imaged with Leica Aperio VERSA microscope slide scanner. Imaged were processed with Aperio Image Scope (v12.4.3.5008).
The synthetic CVGTNCY (SEQ ID NO:2) peptide or scrambled CVGTNCY (SEQ ID NO:2) homing in WT-GBM and VEGFko GBM-bearing mice was analyzed after i.v. injection and perfusion of the animals. Cryosections of glioma-bearing brains were stained with anti-FAM antibody and tyramide amplification kit to enhance the signal of the peptide.
(§1) To assess homing of CVG peptide in glioblastoma, CVGTNCY (SEQ ID NO:2) peptide-phage was injected iv into mice bearing either WT-GBM, VEGFko, U87MG or NCH421k GBM, and to mice without a tumor. At one hour time point mice were perfused, brains and control organs collected and titered. […] (FIGS. 17A-17B) Distribution of CVG peptide in GBM and brain parenchyma was also assessed. CVGTNCY (SEQ ID NO:2) peptide or its scrambled version (CVYTCNG; (SEQ ID NO: 68)) was injected iv into glioma bearing mice, after 1 hour circulation mice were perfused and tissues of interest snap-frozen in liquid nitrogen.

[2] = tested on: WT-GBM, VEGFko, U87MG or NCH421k GBM; experiment: CVG peptide-phage homing in glioblastoma (four models); type: in vivo, mouse; details: peptide-phage i.v., 1 h
Method: as §1

[3] = tested on: P3 stem cells; experiment: In vitro phage binding to cells; type: cell-based, human; details: 4 °C, 1 h, highest ratio
Method: (§2) To assess the binding of Cerepep phage, the cells were cultured in 24-well plates on polylysine coated glass coverslips until 80-90% confluency. The cells were incubated with Cerepep or control insertless peptide-phage at a final concentration of 5×10^7 pfu in 1 ml of DMEM+BSA (1%) at 4 °C for 1 h on a rocking platform. The wells were washed 4 times with 1 ml of DMEM+BSA (1%), the cells were lysed in 1 ml LB+NP40 and the amount of phage bound to the cells was determined by titering.
(§3) Binding of SRRVISRAKLAAAL (SEQ ID NO:9) phage to a panel of different cell lines was studied in vitro.

[4] = molecular target: T1, LRP-1 cluster II (Homo sapiens, UniProt Q07954); experiment: Bead binding assay (FACS); details: 10 nM LRP-1 cluster II, biotinylated peptide on beads
T1 construct: detected by anti-human LRP-1 antibody
T1 sequence (Q07954 786-1165 limits assumed): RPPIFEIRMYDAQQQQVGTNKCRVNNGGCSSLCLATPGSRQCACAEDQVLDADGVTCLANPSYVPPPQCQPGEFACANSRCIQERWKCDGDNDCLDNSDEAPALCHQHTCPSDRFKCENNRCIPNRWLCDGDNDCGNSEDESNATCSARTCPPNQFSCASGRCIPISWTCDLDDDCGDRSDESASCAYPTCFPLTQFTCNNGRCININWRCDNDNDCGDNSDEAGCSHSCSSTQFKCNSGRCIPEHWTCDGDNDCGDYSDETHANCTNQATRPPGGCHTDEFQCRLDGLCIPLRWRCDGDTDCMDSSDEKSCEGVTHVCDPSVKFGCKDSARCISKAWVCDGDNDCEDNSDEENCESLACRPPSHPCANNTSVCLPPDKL
Method: (§4) Briefly, 50 μl of Myone Dynabeads were washed multiple times and incubated with 100 μl of 2 mM biotinylated peptide at room temperature for 2h. Beads were washed twice with PBS, 0.01% Tween 20-DPBS, and 0.01% PBS-BSA. The beads were then incubated overnight with 10 nM LRP-1 cluster II, or LRP-1 cluster III, and Alexa Fluor 647 anti-human LRP-1 antibody (1:200) in PBS with 0.1% BSA (FIGS. 19A-19B).
(§5) The beads were washed several times and analyzed by FACS. Samples are indicated as follows: • Negative control (−ve control): beads incubated with biotin (non-peptide), LRP-1 cluster III protein, and Alexa Fluor 647 anti-human antibody; • Positive control for the cluster II expts: beads incubated with biotinylated-Angiopep2 peptide, LRP-1 cluster II protein and Alexa Fluor 647 anti-human LRP-1 antibody (see FIG. 19A); and • Positive control for cluster III expts: beads incubated with biotinylated-RPAR peptide, Neuropilin-1 b1b2 protein, (1:200) anti-neuropilin-1 antibody, (1:200) and Alexa Fluor 647 anti-rabbit antibody (see FIG. 19B).
(§6) 10,000 events per condition were analyzed. Experient was performed in three replicates per condition and t-test compared scramble sequence (SARVISRAKLARAL (SEQ ID NO:70)) with Cerepep.

[5] = molecular target: T2, LRP-1 cluster III (Homo sapiens, UniProt Q07954); experiment: Bead binding assay (FACS); details: 10 nM LRP-1 cluster III, biotinylated peptide on beads
T2 construct: detected by anti-human antibody
T2 sequence (Q07954 2522-2941 limits assumed): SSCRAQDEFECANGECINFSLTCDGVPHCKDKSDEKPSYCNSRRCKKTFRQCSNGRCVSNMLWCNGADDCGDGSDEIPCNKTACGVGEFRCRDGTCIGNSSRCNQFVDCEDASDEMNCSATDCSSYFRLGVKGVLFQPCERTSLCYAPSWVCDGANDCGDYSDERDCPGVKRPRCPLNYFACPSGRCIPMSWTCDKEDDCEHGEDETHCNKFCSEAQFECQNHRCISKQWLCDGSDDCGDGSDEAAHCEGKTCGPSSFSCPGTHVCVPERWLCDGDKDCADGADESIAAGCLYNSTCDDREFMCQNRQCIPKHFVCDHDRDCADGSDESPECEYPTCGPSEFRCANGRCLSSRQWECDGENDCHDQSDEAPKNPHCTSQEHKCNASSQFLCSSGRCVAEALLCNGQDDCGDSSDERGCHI
Method: as §4, §5, §6

[6] = tested on: Neuro2A; experiment: In vitro phage binding to cells; type: cell-based, mouse; details: 4 °C, 1 h
Method: as §2, §3

[7] = tested on: WT GBM; experiment: In vitro phage binding to cells; type: cell-based, mouse; details: 4 °C, 1 h
Method: as §2, §3

[8] = WT-GBM and VEGFko GBM-bearing mice

| Substance | cell type targeted in normal brain [1] | detection in brain parenchyma [1, 8] | detection/targeting in GBM [1, 8] | detection in brain parenchyma ([1]; WT-GBM and VEGFko GBM-bearing mice, listed as CVG) | PFU per mg of GBM vs normal brain [2] | ratio of CVG over G7 in GBM vs normal brain [2] | binding of peptide-phage, fold over insertless phage [3] | interaction with LRP-1 cluster II [4] | interaction with LRP-1 cluster III [5] | binding of peptide-phage, fold over insertless phage [6] | binding of peptide-phage, fold over insertless phage [7] |
| --- | --- | --- | --- | --- | --- | --- | --- | --- | --- | --- | --- |
| CVGTNCY | binding to the cortical neurons in the normal brain | detected in the brain parenchyma | activated microglia in GBM | homed to brain parenchyma and GBM | greater than normal brain tissue | lower than in normal brain | – | – | – | – | – |
| SRRVISRAKLAAAL [Cerepep, SRRVISRAKLAAAL] | – | – | – | – | – | – | at least 50 fold | interacts with LRP-1 cluster II | interacts with LRP-1 cluster II and cluster III | at least 50 fold | at least 50 fold |
